One molecule from ChEMBL document CHEMBL2034858, “An efficient one-pot synthesis, structure, antimicrobial and antioxidant investigations of some novel quinolyldibenzo[b,e][1,4]diazepinones” (2012) can be followed below.

The subject of this assay is Mycobacterium tuberculosis. As to the kind of experiment: Antitubercular activity against Mycobacterium tuberculosis H37Rv at > 256 ug/mL. The format is functional.

On to `Cc1ncc([N+](=O)[O-])n1CCO` [METRONIDAZOLE], for which the “growth inhibition (GI)” value turned out to be 99%.
